# From patent US5565448A, “Medicament” (SmithKline Beecham Corporation, priority 1994, dated 1996)
# Tests used:
# [1] = test system: rabbit aortic strip; assay: Inhibition of PDBu-induced contraction of rabbit aortic strip; type: cell-based; conditions: Oryctolagus cuniculus; PDBu as agonist
# Excerpt: The effect of compounds of Formula (I) in this assay is examined using the protocol in Ohlstein, et al., J. Pharm. Exp. Ther., 250:548 (1989), except PDBu and compound B are substituted in place of the agonist and antagonist, respectively, therein described.
# [2] = test system: rat cerebellar granule cells; assay: Inhibition of glutamate-induced neurotoxicity in rat cerebellar granule cells; type: cell-based
# Excerpt: The effect of compounds of Formula (I) in this assay is examined using the protocol in Lysko, et al, Brain Research, 499:258 (1989).
# [3] = test system: platelets; assay: Inhibition of PDBu-induced serotonin release from platelets; type: cell-based
# Excerpt: The effect of compounds of Formula (I) in this assay is examined using the protocol in Sano, et al., J. Biol. Chem., 258:2010 (1983).
# [4] = test system: Jurkat cells; assay: Inhibition of PHA and ionophore-induced IL-2 production in Jurkat cells; type: cell-based; conditions: Homo sapiens, IL-2 ELISA
# Description: IL-2 produced in response to PHA and ionophore in the absence or presence of compound B is assayed by an ELISA kit purchased from Advanced Magnetics, Cambridge, MA (Human 1L-2-specific ELISA). The procedure is described by Moriya, N., Journal of Immunoassay, 8:131 (1987) and Robb, R., Hunam, J., Methods in Enzymology: Immunochemical Techniques, Section H (G.Disagato, J. Langone, and H. vanVanakis, eds.: Academic Press, N.Y., vol. 116, p. 493. 1985).
# [5] = test system: HIV-infected cells; assay: HIV syncytial assay; type: cell-based; conditions: syncytial co-cultivation assay
# Description: Chronically infected cells are employed as cell fusion centers in a rapid syncytial co-cultivation assay with uninfected […] target cells. Syncytia develop overnight, in contrast to the 3 to 7 days required for the cytopathic effect to occur in similar cultures infected with cell-free virus preparations. Inhibition of fusion by soluble CD4 and other potential anti-HIV compounds is assessed using the assay described by Truneh, et al., Cellular Immunology, 131:98 (1990).
# [6] = test system: angiotensin II pressor response; assay: Inhibition of pressor response to angiotensin II in conscious rats; type: in vivo; conditions: Rattus norvegicus, intravenous, read-out: ED50, dose producing 50% inhibition of the control response to angiotensin II
# Description: Rats are prepared with indwelling femoral arterial and venous catheters and a stomach tube (Gellai, et al., Kidney Int. 15:419, 1979). Two to three days following surgery the rats are placed in restrainers and blood pressure is continuously monitored from the arterial catheter with a pressure transducer and recorded on a polygraph. The change in mean arterial pressure in response to intravenous injections of […] angiotensin II is compared at various time points prior to and following the administration of the compounds intravenously at doses of 0.1 to 300 mg/kg. The dose of compound needed to produce 50% inhibition of the control response to angiotensin II (ED50) is used to estimate the potency of the compounds. The ED50 of compound B is about 30 mg/kg.
# [7] = test system: mean arterial blood pressure; assay: Antihypertensive activity in conscious spontaneously hypertensive (SHR) rats; type: in vivo; conditions: Rattus norvegicus, intravenous, read-out: ED25, dose needed to reduce mean arterial pressure by 25 mm Hg
# Description: The antihypertensive activity of the compounds is measured by their ability to reduce mean arterial blood pressure in conscious, spontaneously hypertensive (SHR) rats. The animals are prepared with indwelling vascular catheters are described above (A) for the administration of compounds and direct recording of blood pressure. After complete recovery from surgery (4-5 days), the rats are placed into retainers to which they have become accustomed. Mean arterial pressure is recorded continuously prior to and following the intravenous administration of compounds. The dose of compound needed to reduce mean arterial pressure by 25 mm Hg (ED25) is used as an estimate of potency. The ED25 for compound B is about 15mg/kg.
# [8] = test system: hindpaw inflammation; assay: Adjuvant-induced arthritis in Lewis rats; type: in vivo; conditions: Rattus norvegicus, ip; AA Lewis rats, daily intraperitoneal administration; read-out: ED50, suppression of hindpaw inflammation
# Description: Adjuvant-induced arthritis (AA) was produced in Lewis rats by a single intradermal injection of 0.75 mg of Mycobacterium butyricum in light paraffin oil, into the base of the tail. The adjuvant arthritis occurs after a delay of approximately 10 days and is characterized by inflammation of the hindpaws. In prophylatic studies, compounds were administered daily for 5 days, beginning on the sixth day after adjuvant injection. Hindpaw volumes were measured plethysmographically on days 14, 17 and 20. [formula]
# Daily intraperitoneal administration of compound B to AA rats produced a marked, dose related suppression of hindpaw inflammation with an ED50 of <10 mg/kg.
# [9] = test system: TNF; assay: Endotoxic shock model: TNF production and survival in endotoxin-treated rats; type: in vivo, rat
# Excerpt: 6, 1991 and in Hanna, Patent Cooperation Treaty Application Number WO 90/15534, published Dec. 27, 1990.
compound,measurement,setting,value
"NC1=NC(=O)/C(=C2\CCNC(=O)c3[nH]c(Br)cc32)N1 [Compound B, 4-(2-amino-4-oxo-2-imidazolin-5-ylidene)-2-bromo-4,5,6,7-tetrahydropyrrolo(2,3-c)azepine-8-one]",IC50,[1],500 to 800 nM
same,IC50,[2],~600 nM
same,Inhibition of PDBu-induced serotonin release from platelets,[3],showed inhibition
same,IC50,[4],~2000 nM
same,"Inhibition of fusion of HIV-infected cells to CD4-positive, uninfected cells",[5],inhibited the fusion
same,ED50,[6],~30 mg/kg
same,ED (25 mm Hg),[7],~15 mg/kg
same,ED50,[8],< 10 mg/kg
same,Inhibition of the production of TNF,[9],inhibited the production of TNF
same,Survival rate of animals with endotoxic shock,[9],increased the survival rate
